What was measured:
[1] = test system: MPTP-lesioned macaques; test: Motor activity (total activity, high activity time and counts) in MPTP-lesioned macaques treated with URB597 and L-DOPA; type: in vivo, cynomolgus monkeys (Macaca fascicularis)
[2] = test system: MPTP-lesioned macaques; test: as above; type: in vivo, cynomolgus monkeys (Macaca fascicularis); remark: listed apart in the source
Text: In addition, a quantitative assessment of marmoset activity was made using computer-operated passive infra-red sensors, essentially as described previously (Maccarrone et al., 2003, J. Neurochem. 85: 1018-1025; Visanji et al., 2009 J Pharm Exp Ther 328: 276-283). A single sensor containing a hemispherical lens (Guardall, Mississauga, ON, Canada) was mounted 1.5 m above the top of each the observation cage. The sensor was positioned so that motion was detected throughout the entirety of the cage below. The signal was fed via an RS-232 input to a computer. […] Activity counts were logged in 1-min epochs for the entire 6 h duration of the experiment and cumulated over the peak dose period of 2-4 h.
Assessment of marmoset activity was further assessed over time by quantifying the average activity of counts per minute of the same animals obtained prior to administration of MPTP (i.e., in the normal state). Activity over the same period of 2-4 h was calculated and used to identify minutes of high activity (a minute when activity was above the average per minute of the animal prior to MPTP). High activity counts (the total counts obtained in high activity minutes) were cumulated. High activity time (the number of high activity minutes) were also calculated.
Six cynomolgus monkeys (Macaca fascicularis) were used in each experiment. Animals were group housed with up to 3 animals per cage. The cage sizes exceeded UK, NIH, EU and CCAC minimum size recommendations, 2.4 m×3.0 m×1.0 m. The housing room was subject to a 12 hour light-dark cycle (lights on 7 a.m.), temperature 20-25° C. in a room containing only animals of the same sex. Fresh fruit, primate pellets and water was available ad libitum unless specifically described in other examples below.
This experiment examined the behavioral responses to five doses of URB597 (0.01, 0.03, 0.1, 0.3 or 1 mg/kg, i.v.) or vehicle in combination with L-DOPA in six parkinsonian macaques previously lesioned with MPTP.
The protocols for housing and acclimatization for the six parkinsonian MPTP-lesioned macaques were as those detailed in Example 6.
After acclimatization, the macaques in the MPTP cohort were rendered parkinsonian by once daily subcutaneous injection of 0.2 mg/kg MPTP, administered for 8-12 days, until the first appearance of parkinsonism symptoms. After this time, a parkinsonian syndrome evolved to a moderate to marked level, over approximately 30 days, and stabilized. Additional administrations of MPTP were given to some animals to titrate to similar degrees of parkinsonism in individuals across the group.
Sixty days after commencing MPTP administration, L-DOPA (20 mg/kg) was administered orally twice daily for six months. L-DOPA was administered as Madopar™ (L-DOPA in combination with benserazide). This treatment led to the development of motor fluctuations, including dyskinesia and wearing-off.
Dose-finding studies were performed to define a dose of L-DOPA for each individual macaque that provided the best anti-parkinsonian effect achievable and elicited hyperactivity that was stable and reproducible for that animal, on successive L-DOPA administrations.
L-DOPA was administered p.o. at a dose volume of 1 ml/kg, as Madopar™ (L-DOPA in combination with benserazide in the ratio 4:1). The vehicle for Madopar™ was water. On days when animals were not subject to behavioral observations they received maintenance oral L-DOPA, Madopar™ (30 mg/kg, p.o.) at approximately 9:00 a.m.
URB597 was obtained from Cayman Chemical (product #10046) and was formulated in 0.9% sterile saline containing 1% DMSO (v/v) (Sigma-Aldrich product #D2650) and 2% (v/v) Tween-80 (Sigma-Aldrich product #P4780) for dosing at a volume of 1 ml/kg.
For each URB597 concentration tested, requisite amounts of URB597 were weighed into sterile 50 ml sterile polypropylene tubes (Falcon™) (e.g., for the 1 mg/kg doses, approximately 35 mg was weighed). […]

NC(=O)c1cccc(-c2cccc(OC(=O)NC3CCCCC3)c2)c1 [URB597]
total activity counts, high activity time and high activity counts compared to normal macaques ([1]; L-DOPA/URB597 (0.1 ml/kg as printed, i.v.), between 2 and 3 h after L-DOPA): significantly higher | total activity and high activity count compared to L-DOPA alone treatment ([1]; URB597 0.3 mg/ml (so in the source) i.v. + L-DOPA p.o., 2-3 h post L-DOPA, p<0.05): significantly lower | hyperactive behavior compared with treatment with L-DOPA alone ([2]; 0.3 and 1.0 mg/ml (so in the source) URB597 i.v. and L-DOPA p.o.): significant reduction | effect on L-DOPA-induced hyperactivity ([2]; URB597 0.1 mg/kg i.v. + L-DOPA p.o.): ineffective | total activity versus L-DOPA treatment only ([2]; URB597 0.3 mg and 1.0 mg/kg i.v. + L-DOPA p.o., at 3 hrs, RM-ANOVA): significant effect | effect on L-DOPA-induced hyperactivity ([2]; URB597 0.3 mg/kg i.v. + L-DOPA p.o.): maximally effective | levels of L-DOPA-induced hyperactivity, dose dependence ([2]; URB597 0.01-1 mg/kg i.v. + L-DOPA p.o.): dose-dependently reduced | hyperactivity over the L-DOPA treatments alone ([2]; URB597 0.3 and 1.0 mg/kg i.v. + L-DOPA p.o., at 3 hrs post-administration of L-DOPA): lowered hyperactivity

Reference: patent US20130150346A1, “Use of FAAH Inhibitors for Treating Parkinson's Disease and Restless Legs Syndrome” (Ironwood Pharmaceutical, Inc., priority 2010, published 2013)
